The assay concerns the target GCN2 (Homo sapiens, UniProt Q9P2K8). The experiment in a line: TR-FRET biochemical assay for inhibition of GCN2 (Example 106, for Example 1-4BB). Conditions: Table 9. (In general: Time-resolved FRET reads energy transfer from a long-lived donor to a nearby acceptor.)
GCN2, sequence (Q9P2K8 whole entry): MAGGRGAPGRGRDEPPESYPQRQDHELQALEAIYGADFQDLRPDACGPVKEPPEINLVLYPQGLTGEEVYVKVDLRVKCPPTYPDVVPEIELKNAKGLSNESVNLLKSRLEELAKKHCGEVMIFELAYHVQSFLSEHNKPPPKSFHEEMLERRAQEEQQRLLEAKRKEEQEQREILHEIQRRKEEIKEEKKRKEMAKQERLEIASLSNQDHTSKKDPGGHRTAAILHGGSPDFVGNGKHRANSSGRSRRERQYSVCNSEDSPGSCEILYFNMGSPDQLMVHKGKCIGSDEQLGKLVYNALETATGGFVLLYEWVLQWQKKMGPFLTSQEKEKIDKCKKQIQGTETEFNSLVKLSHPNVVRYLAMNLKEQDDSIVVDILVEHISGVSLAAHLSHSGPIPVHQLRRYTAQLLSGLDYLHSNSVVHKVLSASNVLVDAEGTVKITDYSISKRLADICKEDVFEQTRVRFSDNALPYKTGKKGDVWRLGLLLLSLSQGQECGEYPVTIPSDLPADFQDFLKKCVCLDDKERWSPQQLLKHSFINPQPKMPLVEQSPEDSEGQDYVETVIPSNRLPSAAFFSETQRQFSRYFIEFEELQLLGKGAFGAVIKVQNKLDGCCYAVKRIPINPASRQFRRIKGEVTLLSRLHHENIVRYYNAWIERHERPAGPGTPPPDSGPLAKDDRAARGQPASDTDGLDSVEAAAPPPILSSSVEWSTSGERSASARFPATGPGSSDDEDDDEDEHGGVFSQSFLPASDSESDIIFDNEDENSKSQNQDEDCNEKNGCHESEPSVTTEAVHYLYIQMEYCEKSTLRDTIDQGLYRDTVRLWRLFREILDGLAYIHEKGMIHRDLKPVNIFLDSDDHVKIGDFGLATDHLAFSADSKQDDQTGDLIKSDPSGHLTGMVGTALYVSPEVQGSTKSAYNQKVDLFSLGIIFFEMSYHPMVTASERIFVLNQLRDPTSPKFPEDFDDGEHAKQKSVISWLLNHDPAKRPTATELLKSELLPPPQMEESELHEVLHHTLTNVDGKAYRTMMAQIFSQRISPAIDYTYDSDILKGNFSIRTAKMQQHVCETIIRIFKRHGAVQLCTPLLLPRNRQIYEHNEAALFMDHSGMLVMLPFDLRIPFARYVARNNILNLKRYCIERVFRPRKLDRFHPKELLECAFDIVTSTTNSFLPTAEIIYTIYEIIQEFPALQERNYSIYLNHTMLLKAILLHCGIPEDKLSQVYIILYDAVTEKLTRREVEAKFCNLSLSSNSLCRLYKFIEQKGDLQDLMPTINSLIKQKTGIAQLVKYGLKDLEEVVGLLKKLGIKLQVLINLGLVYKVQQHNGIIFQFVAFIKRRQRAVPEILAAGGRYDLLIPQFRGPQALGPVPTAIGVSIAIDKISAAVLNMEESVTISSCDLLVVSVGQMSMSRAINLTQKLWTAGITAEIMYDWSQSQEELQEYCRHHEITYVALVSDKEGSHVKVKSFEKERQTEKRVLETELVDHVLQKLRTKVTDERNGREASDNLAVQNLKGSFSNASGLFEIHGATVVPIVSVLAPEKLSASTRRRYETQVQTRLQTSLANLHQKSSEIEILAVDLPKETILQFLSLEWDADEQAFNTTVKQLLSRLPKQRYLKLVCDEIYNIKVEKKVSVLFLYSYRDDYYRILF
The term IC50 denotes the concentration needed to halve the response being measured. `COc1ncc(C#N)cc1S(=O)(=O)Nc1ccc(F)c(-c2ccc3c(-c4ncc[nH]4)n[nH]c3c2F)c1F` [Example 3DJ, 5-cyano-N-(2,4-difluoro-3-(7-fluoro-3-(1H-imidazol-2-yl)-1H-indazol-6-yl)phenyl)-2-methoxypyridine-3-sulfonamide]: the concentration for half-maximal inhibition (IC50) is < 500 nM.
`COc1nc(C)c(C#N)cc1S(=O)(=O)Nc1ccc(F)c(-c2ccc3c(-c4ncc[nH]4)n[nH]c3c2F)c1F` [Example 3DK, 5-cyano-N-(2,4-difluoro-3-(7-fluoro-3-(1H-imidazol-2-yl)-1H-indazol-6-yl)phenyl)-2-methoxy-6-methylpyridine-3-sulfonamide]: the concentration for half-maximal inhibition (IC50) is < 500 nM.
For `Cc1ccc(S(=O)(=O)Nc2ccc(F)c(-c3ccc4c(C(N)=O)n[nH]c4c3F)c2F)c(C)n1` [Example 3DL, 6-(3-((2,6-dimethylpyridine)-3-sulfonamido)-2,6-difluoro-phenyl)-7-fluoro-1H-indazole-3-carboxamide], the half-inhibitory concentration (IC50) is 500 to 2500 nM.
In the case of `COc1nc(C)c(Cl)cc1S(=O)(=O)Nc1ccc(F)c(-c2ccc3c(C(=O)NCCCN(C)C)n[nH]c3c2F)c1F` [Example 3DN, 6-(3-((5-chloro-2-methoxy-6-methylpyridine)-3-sulfon-amido)-2,6-difluorophenyl)-N-(3-(dimethylamino)propyl)-7-fluoro-1H-indazole-3-carboxamide], the IC50 was < 500 nM.
As to `COc1nc(C)c(Cl)cc1S(=O)(=O)Nc1ccc(F)c(-c2ccc3c(C(=O)NCCCO)n[nH]c3c2F)c1F` [Example 3DO, 6-(3-((5-chloro-2-methoxy-6-methylpyridine)-3-sulfon-amido)-2,6-difluorophenyl)-7-fluoro-N-(3-hydroxypropyl)-1H-indazole-3-carboxamide], the 50% inhibitory concentration (IC50) is < 500 nM.
In the case of `COc1ncc(C#N)cc1S(=O)(=O)Nc1cc(F)cc(-c2ccc3c(C(=O)NCCCO)n[nH]c3c2F)c1F` [Example 3DP, 6-(3-((5-cyano-2-methoxy-pyridine)-3-sulfonamido)-2,5-difluorophenyl)-7-fluoro-N-(3-hydroxypropyl)-1H-indazole-3-carboxamide], the IC50 was < 500 nM.
Turning to `Cc1ncc(F)cc1S(=O)(=O)Nc1ccc(F)c(-c2ccc3c(C(=O)Nc4cnoc4)n[nH]c3c2F)c1F` [Example 3DQ, 6-(2,6-difluoro-3-((5-fluoro-2-methylpyridine)-3-sulfonamido)phenyl)-7-fluoro-N-(isoxazol-4-yl)-1H-indazole-3-carboxamide], the half-inhibitory concentration (IC50) was < 500 nM.
Consider `Cc1ncc(F)cc1S(=O)(=O)Nc1ccc(F)c(-c2ccc3c(C(=O)Nc4cnn(C)c4)n[nH]c3c2F)c1F` [Example 3DR, 6-(2,6-difluoro-3-((5-fluoro-2-methylpyridine)-3-sulfon-amido)phenyl)-7-fluoro-N-(1-methyl-1H-pyrazol-4-yl)-1H-indazole-3-carboxamide], for which the half-maximal inhibitory concentration (IC50) was < 500 nM.
In the case of `Cc1ncc(F)cc1S(=O)(=O)Nc1ccc(F)c(-c2ccc3c(C(=O)Nc4cn[nH]c4)n[nH]c3c2F)c1F` [Example 3DS, 6-(2,6-difluoro-3-((5-fluoro-2-methylpyridine)-3-sulfonamido)phenyl)-7-fluoro-N-(1H-pyrazol-4-yl)-1H-indazole-3-carboxamide], the IC50 is < 500 nM.
The figure for `COc1ncc(Cl)cc1S(=O)(=O)Nc1ccc(F)c(-c2ccc3c(C(=O)NC[C@@H]4CCCN4C)n[nH]c3c2F)c1F` [Example 3E, 6-(3-((5-chloro-2-methoxy-pyridine)-3-sulfonamido)-2,6-difluorophenyl)-7-fluoro-N-(((S)-1-methylpyrrolidin-2-yl)methyl)-1H-indazole-3-carboxamide] is < 500 nM; for `Cc1ncc(F)cc1S(=O)(=O)Nc1ncc(F)c(-c2ccc3c(-c4ncc[nH]4)n[nH]c3c2F)c1F` [Example 3F, N-(3,5-difluoro-4-(7-fluoro-3-(1H-imidazol-2-yl)-1H-indazol-6-yl)pyridin-2-yl)-5-fluoro-2-methylpyridine-3-sulfonamide] it is < 500 nM.
Regarding `COc1ncccc1S(=O)(=O)Nc1ccnc(-c2ccc3c(-c4ncc[nH]4)n[nH]c3c2F)c1C#N` [Example 3G, N-(3-cyano-2-(7-fluoro-3-(1H-imidazol-2-yl)-1H-indazol-6-yl)pyridin-4-yl)-2-methoxypyridine-3-sulfonamide], the 50% inhibitory concentration (IC50) was > 10000 nM.
Take `O=S(=O)(Nc1ncc(F)c(-c2ccc3c(-c4ncc[nH]4)n[nH]c3c2F)c1F)c1cc(F)ccc1F` [Example 3H, N-(3,5-difIuoro-4-(7-fluoro-3-(1H-imidazol-2-yl)-1H-indazol-6-yl)pyridin-2-yl)-2,5-difluorobenzene-sulfonamide]: the IC50 was < 500 nM.
Turning to `Cc1ncc(C#N)cc1S(=O)(=O)Nc1ccc(F)c(-c2ccc3c(-c4ncc[nH]4)n[nH]c3c2F)c1F` [Example 3I, 5-cyano-N-(2,4-difluoro-3-(7-fluoro-3-(1H-imidazol-2-yl)-1H-indazol-6-yl)phenyl)-2-methylpyridine-3-sulfonamide], the IC50 is < 500 nM.
`COc1ncccc1S(=O)(=O)Nc1nccc(-c2ccc3c(-c4ncc[nH]4)n[nH]c3c2F)c1C#N` [Example 3J, N-(3-cyano-4-(7-fluoro-3-(1H-imidazol-2-yl)-1H-indazol-6-yl)pyridin-2-yl)-2-methoxypyridine-3-sulfonamide] displayed a 50% inhibitory concentration (IC50) of 2500 to 10000 nM.
As for `COc1ncc(F)cc1S(=O)(=O)Nc1ncc(F)c(-c2ccc3c(-c4nc(CO)c[nH]4)n[nH]c3c2F)c1F` [Example 3K, N-(3,5-difluoro-4-(7-fluoro-3-(4-(hydroxymethyl)-1H-imidazol-2-yl)-1H-indazol-6-yl)pyridin-2-yl)-5-fluoro-2-methoxypyridine-3-sulfonamide], the IC50 was < 500 nM.
In the case of `Cc1ncccc1S(=O)(=O)Nc1ncc(F)c(-c2ccc3c(-c4ncc[nH]4)n[nH]c3c2F)c1F` [Example 3L, N-(3,5-difluoro-4-(7-fluoro-3-(1H-imidazol-2-yl)-1H-indazol-6-yl)pyridin-2-yl)-2-methylpyridine-3-sulfonamide], the half-inhibitory concentration (IC50) was > 10000 nM.
On to `COc1ncc(F)cc1S(=O)(=O)Nc1ncc(F)c(-c2ccc3c(C(N)=O)n[nH]c3c2F)c1F` [Example 3M, 6-(3,5-difluoro-2-((5-fluoro-2-methoxypyridine)-3-sulfonamido)pyridin-4-yl)-7-fluoro-1H-indazole-3-carboxamide], for which the IC50 is > 10000 nM.
With `Cc1ncc(F)cc1S(=O)(=O)Nc1cccc(-c2ccc3c(-c4ncc[nH]4)n[nH]c3c2Cl)c1F` [Example 3N, N-(3-(7-chloro-3-(1H-imidazol-2-yl)-1H-indazol-6-yl)-2-fluorophenyl)-5-fluoro-2-methylpyridine-3-sulfonamide], the IC50 lay within 500 to 2500 nM.
With `O=S(=O)(Nc1ccc(F)c(-c2ccc3c(-c4ncc[nH]4)n[nH]c3c2F)c1F)c1cccn2ccnc12` [Example 3O, N-(2,4-difIuoro-3-(7-fluoro-3-(1H-imidazol-2-yl)-1H-indazol-6-yl)phenyl)-imidazo[1,2-a]pyridine-8-sulfonamide], the 50% inhibitory concentration (IC50) is < 500 nM.
Turning to `COc1ncc(F)cc1S(=O)(=O)Nc1ncc(F)c(-c2ccc3c(C(N)=O)n[nH]c3c2)c1F` [Example 3P, 6-(3,5-difluoro-2-((5-fluoro-2-methoxypyridine)-3-sulfonamido)pyridin-4-yl)-1H-indazole-3-carboxamide], the IC50 was > 10000 nM.
In the case of `COc1ncc(F)cc1S(=O)(=O)Nc1nccc(-c2ccc3c(C(N)=O)n[nH]c3c2F)c1F` [Example 3Q, 6-(3-fluoro-2-((5-fluoro-2-methoxypyridine)-3-sulfonamido)pyridin-4-yl)-7-fluoro-1H-indazole-3-carboxamide], the concentration for half-maximal inhibition (IC50) is 500 to 2500 nM.
Under `COc1ncc(F)cc1S(=O)(=O)Nc1ccc(F)c(-c2ccc3c(C(=O)NCCCO)n[nH]c3c2F)c1F` [Example 3R, 6-(2,6-difluoro-3-((5-fluoro-2-methoxypyridine)-3-sulfonamido)phenyl)-7-fluoro-N-(3-hydroxypropyl)-1H-indazole-3-carboxamide] stands < 500 nM; under `CNC(=O)c1n[nH]c2c(F)c(-c3c(F)ccc(NS(=O)(=O)c4cc(F)cnc4OC)c3F)ccc12` [Example 3S, 6-(2,6-difluoro-3-((5-fluoro-2-methoxypyridine)-3-sulfonamido)phenyl)-7-fluoro-N-methyl-1H-indazole-3-carboxamide], < 500 nM.
Take `COc1ncc(F)cc1S(=O)(=O)Nc1ccc(F)c(-c2ccc3c(C(N)=O)n[nH]c3c2F)c1F` [Example 3T, 6-(2,6-difluoro-3-((5-fluoro-2-methoxypyridine)-3-sulfonamido)phenyl)-7-fluoro-1H-indazole-3-carboxamide]: the IC50 is < 500 nM.
`COc1ncc(F)cc1S(=O)(=O)Nc1ccc(F)c(-c2ccc3c(C(=O)NCCCN(C)C)n[nH]c3c2F)c1F` [Example 3U, 6-(2,6-difluoro-3-((5-fluoro-2-methoxypyridine)-3-sulfonamido)phenyl)-N-(3-(dimethylamino)propyl)-7-fluoro-1H-indazole-3-carboxamide]: the IC50 was < 500 nM.
Under `COc1ncc(F)cc1S(=O)(=O)Nc1cccc(-c2ccc3c(-c4ncc[nH]4)n[nH]c3c2F)c1F` [Example 3V, N-(2-fluoro-3-(7-fluoro-3-(1H-imidazol-2-yl)-1H-indazol-6-yl)phenyl)-5-fluoro-2-methoxypyridine-3-sulfonamide] stands < 500 nM.
The figure for `COc1ncccc1S(=O)(=O)Nc1cccc(-c2ccc3c(-c4ncc[nH]4)n[nH]c3c2F)c1F` [Example 3W, N-(2-fluoro-3-(7-fluoro-3-(1H-imidazol-2-yl)-1H-indazol-6-yl)phenyl)-2-methoxypyridine-3-sulfonamide] is < 500 nM.
For `COc1ncc(F)cc1S(=O)(=O)Nc1ccc(F)c(-c2ccc3c(-c4nc(CO)c[nH]4)n[nH]c3c2F)c1F` [Example 3X, N-(2,4-difluoro-3-(7-fluoro-3-(4-(hydroxymethyl)-1H-imidazol-2-yl)-1H-indazol-6-yl)phenl)-5-fluoro-2-methoxypyridine-3-sulfonamide], the IC50 is < 500 nM.
Turning to `Cc1ncc(F)cc1S(=O)(=O)Nc1cccc(-c2ccc3c(-c4ncc[nH]4)n[nH]c3c2C)c1F` [Example 3Y, N-(3-(3-(1H-imidazol-2-yl)-7-methyl-1H-indazol-6-yl)-2-fluorophenyl)-5-fluoro-2-methylpyridine-3-sulfonamide], the IC50 lay within 500 to 2500 nM.

The record behind these values is US20220388964A1 (HiberCell, Inc., priority 2019, published 2022).
